Results published in US20200017449A1, “HYDANTOINS THAT MODULATE BACE-MEDIATED APP PROCESSING” (Buck Institute for Research on Aging, priority 2013, published 2020).
Read-outs that look alike come from different tables or passages of the source.

Legend:
BACE1 = molecular target: T1, BACE1 (Homo sapiens, UniProt P56817); test: BACE1 P5-P5′ fluorescence substrate assay (APP-BACE1 IC50); format: biochemical; settings: Table 1; read-out: BACE IC50
T1 construct: purchased R&D 931-AS-050
Experimental: In one illustrative embodiment, an MBP-C125 APP695 wt fusion protein can be used as one of the substrates and the second substrate can be the commercially available P5-P5′ fluorescence substrate.
Briefly, 0.01 units of BACE1 were incubated for 1 h at room temperature with a BACE inhibitor, then the substrate was added to each well and the fluorescence was read immediately and every 30 min for 2 h. Activity was determine by dividing the fluorescence at a specific [BACE inhibitor] by the fluorescence at [BACE inhibitor]=0 μM, the % activity was plotted vs log[BACE inhibitor] to determine the APP-BACE1 using GraphPad Prism 5 (FIG. 6A)

Aβ42 = test: Aβ lowering in brain uptake animals; format: in vivo; settings: NTg mice
Experimental: Compound 2 and other hydantoins were produced (see, e.g., compounds 1-5 pharmacokinetic evaluation of these hydantoins was determined in brain uptake assays using NTg mice (see, e.g., Table 1). It was also determined that Compound 1 lowered Aβ42 in the same animals at 5 mpk, while compound 3 lowered Aβ at 1 mpk.

TRX-eAPP575-624 = molecular target: T2, TRX-eAPP575-624 (Homo sapiens, UniProt P05067); test: SPR (Biacore) binding to ectodomain of APP
T2 construct: residues 575-624 of the APP ectodomain; made in house
Experimental: The binding affinity of the compounds for the ectodomain of APP was determined using SPR. […] The eAPP was crosslinked linked to the CM5 Biacore chips (GE Healthcare).
FC1 served as a reference cell following a mock immobilization with buffer alone. For all cells, the flow rate was 10 μl per min. The chip was blocked with 1M ethanolamine (pH 8.5). […] Binding traces were recorded for each dilution with a binding phase of 60 seconds and a dissociation phase of 240 seconds. Each cycle was performed at 20° C. with a constant flow rate of 20 μl/min. An additional 240 seconds of buffer flow at 60 μl per min across the cells was applied as a regeneration phase to facilitate complete dissociation of the compound from the protein. The sensograms were obtained by subtraction of the reference and buffer signals using the Biacore T100 Evaluation software. The binding curves were modeled with the PRISM (Graphpad Inc).

[1] = system: Aβ1-42 in SH-SY5Y neuroblastoma cells; test: Aβ1-42 in SH-SY5Y cells (ELISA); format: cell-based, human; settings: FIG. 5
Experimental: SH-SY5Y neuroblastoma cells were seeded at 50,000 cells/well in a 96 wells plate for 24 h. Then their medium was changed for fresh medium supplemented with desired concentration of the hydantoin compound (e.g. compound 3). After 24 h, 20 μl of the medium was added to 2 μl of the complete protease inhibitor with 1 μM EDTA and kept at 4° C. until analysis using the ELISA assay below.
ELISA kits from Invitrogen were also used to quantify Aβ1-42 (KHB3544) in duplicate. For the Aβ1-42 ultrasensitive ELISA, samples were diluted 1:2 (50 μl CSF plus 50 μl kit-provided standard diluent buffer). Assays were performed according to manufacturer's instructions. In short, standards and samples were added to a plate pre-coated with a monoclonal capture antibody specific for the amino terminus of Hu Aβ. The samples were co-incubated with a rabbit detection antibody (Ab) specific for the carboxy terminus of the Aβ species being assayed for 3 hr at room temperature overnight at 4°(Aβ1-42) with gentle rocking. After washing, bound rabbit Ab was detected using a horseradish peroxidase-labeled anti-rabbit secondary Ab. After washing again, bound HRP-anti rabbit Ab was detected colorimetrically (Spectramax 190, Molecular Devices) by the addition of a substrate solution. […]

[2] = Table 1, SPR, read-out: APP binding Kd

T1 sequence (P56817 46-501): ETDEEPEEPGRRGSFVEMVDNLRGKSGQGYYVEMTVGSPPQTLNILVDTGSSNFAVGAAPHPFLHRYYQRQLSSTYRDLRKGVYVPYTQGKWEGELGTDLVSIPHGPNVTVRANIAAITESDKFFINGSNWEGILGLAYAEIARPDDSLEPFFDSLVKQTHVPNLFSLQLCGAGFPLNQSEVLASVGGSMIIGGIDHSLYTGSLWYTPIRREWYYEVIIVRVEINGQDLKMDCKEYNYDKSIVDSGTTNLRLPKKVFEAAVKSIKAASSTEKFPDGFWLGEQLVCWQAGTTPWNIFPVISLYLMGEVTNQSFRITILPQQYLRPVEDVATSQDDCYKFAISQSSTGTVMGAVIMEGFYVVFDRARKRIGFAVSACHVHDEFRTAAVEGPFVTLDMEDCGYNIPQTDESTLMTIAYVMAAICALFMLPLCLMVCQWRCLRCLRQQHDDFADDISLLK
T2 sequence (P05067 650-699): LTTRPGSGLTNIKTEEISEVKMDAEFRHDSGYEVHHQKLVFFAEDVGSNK

| SMILES | IC50 (BACE1) [µM] | Kd (TRX-eAPP575-624; [2]) [µM] | also measured |
| --- | --- | --- | --- |
| CN1C(=O)C(c2ccccc2)(c2cc(F)cc(F)c2)N=C1N (stereo not drawn) [FAH-1] | 3 | – | lowering of Aβ42 in vivo (Aβ42; 5 mpk): lowered Aβ42 |
| CN1C(=O)C(c2ccc(OC(F)F)cc2)(c2cc(F)cc(F)c2)N=C1N (stereo not drawn) [FAH-2, 2-amino-4-(4-(difluoromethoxy)phenyl)-4-(3,5-difluorophenyl)-1-methyl-1H-imidazol-5(4H)-one] | 2 | 8 | – |
| Cc1cc(C2(c3cc(F)cc(F)c3)N=C(N)N(C)C2=O)ccc1OC(F)F (stereo not drawn) [FAH-3, 2-amino-4-(4-(difluoromethoxy)-3-methylphenyl)-4-(3,5-difluorophenyl)-1-methyl-1H-imidazol-5(4H)-one] | 0.52 | – | binding to eAPP (qualitative) (TRX-eAPP575-624; SPR / BiaCore, FIG. 4): binding to eAPP575-624; inhibition of Aβ production [1]: inhibition of Aβ production; lowering of Aβ in vivo (Aβ42; 1 mpk): lowered Aβ |
| CN1C(=O)C(c2cc(F)cc(F)c2)(c2cccc(OC(F)F)c2)N=C1N (stereo not drawn) [FAH-4, 2-amino-4-(3-(difluoromethoxy)phenyl)-4-(3,5-difluorophenyl)-1-methyl-1H-imidazol-5(4H)-one] | 2.1 | – | – |
| Cc1cc(C)cc(C2(c3cc(F)cc(F)c3)N=C(N)N(C)C2=O)c1 (stereo not drawn) [FAH-5, 2-amino-4-(3,5-difluorophenyl)-4-(3,5-dimethylphenyl)-1-methyl-1H-imidazol-5(4H)-one] | 5 | – | – |
| Cc1cc(C2(c3cccc(F)c3)N=C(N)N(C)C2=O)ccc1OC(F)F (stereo not drawn) [FAH-17, 2-amino-4-(4-(difluoromethoxy)-3-methylphenyl)-4-(3-fluorophenyl)-1-methyl-1H-imidazol-5(4H)-one] | – | < 1 | Kd (TRX-eAPP575-624; Table 5, Secondary Screen, read-out: APP Kd): < 1 µM |
